According to patent EP4782448A1, “SUBSTITUTED PYRIDOTRIAZOLE COMPOUND, AND PREPARATION METHOD THEREFOR AND USE THEREOF” (Origiant Pharmaceutical Co., Ltd., priority 2023, dated 2025):

Test system: HT-29 cells
Assay: In vitro assay for protection of HT-29 cells from necroptosis (TNFα/Smac mimetic/Z-VAD-FMK induction, CCK8 readout)
Format: cell-based
Conditions: TNFα/Smac mimetic/Z-VAD-FMK for 24 h; inhibition of necroptosis; read-out: HT-29 (EC50)

CC(C(=O)Nc1nc2cc(-c3ccc4c(c3)c(C(=O)N[C@@H](C)c3ccc(F)cc3)cn4C)ccn2n1)N1CC[C@H](O)C1 (stereo partly drawn) [Compound 1]
EC50: 10 to 100 nM

C[C@H](NC(=O)c1cn(C)c2ccc(-c3ccn4nc(NC(=O)CN5C[C@H](O)CC5=O)nc4c3)cc12)c1ccc(F)cc1 [Compound 4]
EC50: 10 to 100 nM

C[C@H](NC(=O)c1cn(C)c2ccc(-c3ccn4nc(NC(=O)CN5CCC(O)(O)CC5)nc4c3)cc12)c1ccc(F)cc1 [Compound 5]
EC50: < 1 nM

C[C@H](NC(=O)c1cn(C)c2ccc(-c3ccn4nc(NC(=O)CN5CCC[C@H](O)C5)nc4c3)cc12)c1ccc(F)cc1 [Compound 7]
EC50: < 1 nM

CCOC(=O)C(=O)Nc1nc2cc(-c3ccc4c(c3)c(C(=O)N[C@@H](C)c3ccc(F)cc3)cn4C)ccn2n1 [Compound 10]
EC50: 1 to 10 nM

C[C@H](NC(=O)c1cn(C)c2ccc(-c3ccn4nc(NC(=O)C(N)=O)nc4c3)cc12)c1ccc(F)cc1 [Compound 11]
EC50: 1 to 10 nM

C[C@H](NC(=O)c1cn(C)c2ccc(-c3ccn4nc(NC(=O)CN5CC[C@@H](O)C5)nc4c3)cc12)c1ccc(F)cc1 [Compound 12]
EC50: < 1 nM

C[C@H](NC(=O)c1cn(C)c2ccc(-c3ccn4nc(NC(=O)CC5CCCCC5)nc4c3)cc12)c1ccc(F)cc1 [Compound 13]
EC50: < 1 nM

C[C@H](NC(=O)c1cn(C)c2ccc(-c3ccn4nc(NC(=O)CN5CCOCC5=O)nc4c3)cc12)c1ccc(F)cc1 [Compound 16]
EC50: 10 to 100 nM

CCOC(=O)Nc1nc2cc(-c3ccc4c(c3)c(C(=O)N[C@@H](C)c3ccc(F)cc3)cn4C)ccn2n1 [Compound 17]
EC50: < 1 nM

COC1CCN(CC(=O)Nc2nc3cc(-c4ccc5c(c4)c(C(=O)N[C@@H](C)c4ccc(F)cc4)cn5C)ccn3n2)C1 (stereo partly drawn) [Compound 19]
EC50: < 1 nM

C[C@H](NC(=O)c1cn(C)c2ccc(-c3ccn4nc(NC(=O)CN5CC[C@@H](F)C5)nc4c3)cc12)c1ccc(F)cc1 [Compound 20]
EC50: < 1 nM

C[C@H](NC(=O)c1cn(C)c2ccc(-c3ccn4nc(NC(=O)CN5CC[C@H](F)C5)nc4c3)cc12)c1ccc(F)cc1 [Compound 21]
EC50: < 1 nM

C[C@H](NC(=O)c1cn(C)c2ccc(-c3ccn4nc(NC(=O)CN5CCC(C#N)CC5)nc4c3)cc12)c1ccc(F)cc1 [Compound 23]
EC50: < 1 nM

COC1CCN(CC(=O)Nc2nc3cc(-c4ccc5c(c4)c(C(=O)N[C@@H](C)c4ccc(F)cc4)cn5C)ccn3n2)CC1 [Compound 24]
EC50: < 1 nM

COCCOCCOCC(=O)Nc1nc2cc(-c3ccc4c(c3)c(C(=O)N[C@@H](C)c3ccc(F)cc3)cn4C)ccn2n1 [Compound 25]
EC50: < 1 nM

COCCOCCOCCOCC(=O)Nc1nc2cc(-c3ccc4c(c3)c(C(=O)N[C@@H](C)c3ccc(F)cc3)cn4C)ccn2n1 [Compound 26]
EC50: < 1 nM

C[C@H](NC(=O)c1cn(C)c2ccc(-c3ccn4nc(NC(=O)CN5CCS(=O)(=O)CC5)nc4c3)cc12)c1ccc(F)cc1 [Compound 28]
EC50: 1 to 10 nM

C[C@H](NC(=O)c1cn(C)c2ccc(-c3ccn4nc(NC(=O)CN5CCCOCC5)nc4c3)cc12)c1ccc(F)cc1 [Compound 30]
EC50: < 1 nM

C[C@H](NC(=O)c1cn(C)c2ccc(-c3ccn4nc(NC(=O)C5(C(=O)O)CC5)nc4c3)cc12)c1ccc(F)cc1 [Compound 31]
EC50: 10 to 100 nM

C[C@H](NC(=O)c1cn(C)c2ccc(-c3ccn4nc(NC(=O)CN5CCOCC5C(=O)O)nc4c3)cc12)c1ccc(F)cc1 (stereo partly drawn) [Compound 33]
EC50: 1000 to 10000 nM

C[C@H](NC(=O)c1cn(C)c2ccc(-c3ccn4nc(NC(=O)CN5CC(C#N)C5)nc4c3)cc12)c1ccc(F)cc1 [Compound 34]
EC50: < 1 nM

C[C@H](NC(=O)c1cn(C)c2ccc(-c3ccn4nc(NC(=O)CN5CCOC[C@@H]5CO)nc4c3)cc12)c1ccc(F)cc1 [Compound 35]
EC50: < 1 nM

CCN(CC)CC(=O)Nc1nc2cc(-c3ccc4c(c3)c(C(=O)N[C@@H](C)c3ccc(F)cc3)cn4C)ccn2n1 [Compound 36]
EC50: < 1 nM

C[C@H](NC(=O)c1cn(C)c2ccc(-c3ccn4nc(NC(=O)CN5CCC[C@H]5C(=O)O)nc4c3)cc12)c1ccc(F)cc1 [Compound 37]
EC50: 1 to 10 nM

C[C@H](NC(=O)c1cn(C)c2ccc(-c3ccn4nc(NC(=O)CN5CC[C@H](O)C5)nc4c3)cc12)c1ccc(F)cc1 [Compound 41]
EC50: < 1 nM

C[C@H](NC(=O)c1cn(C)c2ccc(-c3ccn4nc(NC(=O)CN5CCCC(CO)C5)nc4c3)cc12)c1ccc(F)cc1 (stereo partly drawn) [Compound 44]
EC50: 1 to 10 nM

CC1CN(CC(=O)Nc2nc3cc(-c4ccc5c(c4)c(C(=O)N[C@@H](C)c4ccc(F)cc4)cn5C)ccn3n2)CCO1 (stereo partly drawn) [Compound 45]
EC50: < 1 nM

C[C@H](NC(=O)c1cn(C)c2ccc(-c3ccn4nc(NC(=O)CN5CCC(F)(F)CC5)nc4c3)cc12)c1ccc(F)cc1 [Compound 47]
EC50: < 1 nM

C[C@H](NC(=O)c1cn(C)c2ccc(-c3ccn4nc(NC(=O)Cn5ccnc5)nc4c3)cc12)c1ccc(F)cc1 [Compound 48]
EC50: 10 to 100 nM

C[C@H](NC(=O)c1cn(C)c2ccc(-c3ccn4nc(NC(=O)CN5CCC[C@@H](O)C5)nc4c3)cc12)c1ccc(F)cc1 [Compound 49]
EC50: 1 to 10 nM

C[C@H](NC(=O)c1cn(C)c2ccc(-c3ccn4nc(NC(=O)CN5CCN(C(=O)C6CC6)CC5)nc4c3)cc12)c1ccc(F)cc1 [Compound 50]
EC50: < 1 nM

C[C@H](NC(=O)c1cn(C)c2ccc(-c3ccn4nc(NC(=O)Cn5ccnn5)nc4c3)cc12)c1ccc(F)cc1 [Compound 52]
EC50: < 1 nM

CC(=O)N1CCN(CC(=O)Nc2nc3cc(-c4ccc5c(c4)c(C(=O)N[C@@H](C)c4ccc(F)cc4)cn5C)ccn3n2)CC1 [Compound 53]
EC50: < 1 nM

C[C@H](NC(=O)c1cn(C)c2ccc(-c3ccn4nc(NC(=O)Cn5cncn5)nc4c3)cc12)c1ccc(F)cc1 [Compound 57]
EC50: 10 to 100 nM

C[C@H](NC(=O)c1cn(C)c2ccc(-c3ccn4nc(NC(=O)Cn5cccn5)nc4c3)cc12)c1ccc(F)cc1 [Compound 58]
EC50: < 1 nM

C[C@H](NC(=O)c1cn(C)c2ccc(-c3ccn4nc(NC(=O)CN5CC[C@H](CO)C5)nc4c3)cc12)c1ccc(F)cc1 [Compound 61]
EC50: 1 to 10 nM

C[C@H](NC(=O)c1cn(C)c2ccc(-c3ccn4nc(NC(=O)CN5CC[C@@H](CO)C5)nc4c3)cc12)c1ccc(F)cc1 [Compound 62]
EC50: < 1 nM

C[C@H](NC(=O)c1cn(C)c2ccc(-c3ccn4nc(NC(=O)CC(=O)O)nc4c3)cc12)c1ccc(F)cc1 [Compound 63]
EC50: 1000 to 10000 nM

C[C@H](NC(=O)c1cn(C)c2ccc(-c3ccn4nc(NC(=O)CN5CCN(C(=O)OC(C)(C)C)C[C@H]5C)nc4c3)cc12)c1ccc(F)cc1 [Compound 64]
EC50: < 1 nM

C[C@H](NC(=O)c1cn(C)c2ccc(-c3ccn4nc(NC(=O)CNCCOCCO)nc4c3)cc12)c1ccc(F)cc1 [Compound 65]
EC50: < 1 nM

C[C@H](NC(=O)c1cn(C)c2ccc(-c3ccn4nc(NC(=O)CNCC5CC5)nc4c3)cc12)c1ccc(F)cc1 [Compound 66]
EC50: < 1 nM

CC(C)NCC(=O)Nc1nc2cc(-c3ccc4c(c3)c(C(=O)N[C@@H](C)c3ccc(F)cc3)cn4C)ccn2n1 [Compound 67]
EC50: < 1 nM

C[C@H](NC(=O)c1cn(C)c2ccc(-c3ccn4nc(NC(=O)CN5CCN(CCO)CC5)nc4c3)cc12)c1ccc(F)cc1 [Compound 70]
EC50: < 1 nM

C[C@H](NC(=O)c1cn(C)c2ccc(-c3ccn4nc(NC(=O)CN5CCOC[C@H]5C)nc4c3)cc12)c1ccc(F)cc1 [Compound 72]
EC50: < 1 nM

CCNCC(=O)Nc1nc2cc(-c3ccc4c(c3)c(C(=O)N[C@@H](C)c3ccc(F)cc3)cn4C)ccn2n1 [Compound 76]
EC50: < 1 nM

C[C@H](NC(=O)c1cn(C)c2ccc(-c3ccn4nc(NC(=O)CNC5CCOC5)nc4c3)cc12)c1ccc(F)cc1 (stereo partly drawn) [Compound 77]
EC50: < 1 nM

C[C@H](NC(=O)c1cn(C)c2ccc(-c3ccn4nc(NC(=O)CN(C)C)nc4c3)cc12)c1ccc(Cl)cc1 [Compound 78]
EC50: < 1 nM

C[C@H](NC(=O)c1cn(C)c2ccc(-c3ccn4nc(NC(=O)CN5CC6CC5CO6)nc4c3)cc12)c1ccc(Cl)cc1 (stereo partly drawn) [Compound 79]
EC50: < 1 nM

C[C@H](NC(=O)c1cn(C)c2ccc(-c3ccn4nc(NC(=O)CN5CC(F)(F)C5)nc4c3)cc12)c1ccc(Cl)cc1 [Compound 80]
EC50: < 1 nM

C[C@H](NC(=O)c1cn(C)c2ccc(-c3ccn4nc(NC(=O)CN5CCOC[C@H]5C)nc4c3)cc12)c1ccc(Cl)cc1 [Compound 81]
EC50: < 1 nM

C[C@H](NC(=O)c1cn(C)c2ccc(-c3ccn4nc(NC(=O)CN5CCOC[C@@H]5C)nc4c3)cc12)c1ccc(Cl)cc1 [Compound 82]
EC50: < 1 nM

C[C@H](NC(=O)c1cn(C)c2ccc(-c3ccn4nc(NC(=O)CN5CCOCC5)nc4c3)cc12)c1ccc(Cl)cc1 [Compound 83]
EC50: < 1 nM

CC1CN(CC(=O)Nc2nc3cc(-c4ccc5c(c4)c(C(=O)N[C@@H](C)c4ccc(Cl)cc4)cn5C)ccn3n2)CCO1 (stereo partly drawn) [Compound 84]
EC50: < 1 nM

C[C@@H]1CN(CC(=O)Nc2nc3cc(-c4ccc5c(c4)c(C(=O)N[C@@H](C)c4ccc(Cl)cc4)cn5C)ccn3n2)C[C@H](C)O1 [Compound 85]
EC50: < 1 nM

C[C@H](NC(=O)c1cn(C)c2ccc(-c3ccn4nc(NC(=O)CN5CCC(F)(F)CC5)nc4c3)cc12)c1ccc(Cl)cc1 [Compound 86]
EC50: < 1 nM

C[C@H](NC(=O)c1cn(C)c2ccc(-c3ccn4nc(NC(=O)CN5CCSCC5)nc4c3)cc12)c1ccc(Cl)cc1 [Compound 87]
EC50: < 1 nM

C[C@H](NC(=O)c1cn(C)c2ccc(-c3ccn4nc(NC(=O)CN5CCOCC5)nc4c3)cc12)c1ccco1 [Compound 88]
EC50: 1 to 10 nM

C[C@H](NC(=O)c1cn(C)c2ccc(-c3ccn4nc(NC(=O)CN5CCOCC5)nc4c3)cc12)C(C)(C)C [Compound 90]
EC50: 1000 to 10000 nM

C[C@H](NC(=O)c1cn(C)c2ccc(-c3ccn4nc(NC(=O)c5cnn(C)c5)nc4c3)cc12)C(C)(C)C [Compound 91]
EC50: 1000 to 10000 nM

C[C@H](NC(=O)c1cn(C)c2ccc(-c3ccn4nc(NC(=O)C5CC5F)nc4c3)cc12)C(C)(C)C (stereo partly drawn) [Compound 92]
EC50: 100 to 1000 nM

C[C@H](NC(=O)c1cn(C)c2ccc(-c3ccn4nc(NC(=O)C5CC5)nc4c3)cc12)C(C)(C)C [Compound 93]
EC50: 100 to 1000 nM

Cn1cc(C(=O)N[C@@H](CF)c2ccc(F)cc2)c2cc(-c3ccn4nc(NC(=O)CCl)nc4c3)ccc21 [Compound 94]
EC50: < 1 nM
